What was measured:
S. aureus Newman [1] = test: fitness (endpoint OD595 vs no drug) (fraction); higher = more growth
Method in brief: (§1)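 Fitness compares growth at the stationary-phase transition with the robust mean of no-drug control wells, as a ratio of optical densities. The ratio is capped at 1. Wells of 384-well plates held 30 µl, or 55 µl for S. pneumoniae, inoculated at OD595 0.01. Readings at OD595 every 30 min for 14 h at 37 °C were corrected against the first reading.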

B. subtilis 168 [2] = test: as above
Method in brief: as §1

S. pneumoniae D39V = test: as above
Method in brief: as §1

S. aureus Newman [3] = test: Bliss interaction score (quartile over a dose matrix) (fitness difference); higher = more antagonism (negative = synergy)
Method in brief: (§2)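 The Bliss score is observed minus expected fitness under the product model, reported as quartiles over technical, biological and donor/recipient replicates. Fitness is the OD595 at entry into stationary phase divided by the plate's robust no-drug mean and capped at 1. Single-drug fitness was inferred from combination data.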

S. aureus DSM 20231 = test: as above
Method in brief: as §2

B. subtilis 168 [4] = test: as above
Method in brief: as §2
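Throughout, for Bliss interaction score (quartile over a dose matrix): first quartile when negative (synergy) and third quartile when positive (antagonism).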

For `O=C(O)c1cn(C2CC2)c2cc(N3CCNCC3)c(F)cc2c1=O` [Ciprofloxacin] + Cc1onc(-c2ccccc2)c1C(=O)N[C@@H]1C(=O)N2[C@@H]1SC(C)(C)[C@@H]2C(=O)O [Oxacillin], the fitness (S. aureus Newman [1]; first compound 0.0375 µg/mL, partner 0.0156 µg/mL) was 0.622, the fitness (S. aureus Newman [1]; first compound 0.0375 µg/mL, partner 0.0312 µg/mL) was 0.612 and the fitness (S. aureus Newman [1]; first compound 0.0375 µg/mL, partner 0.0625 µg/mL) was 0.573. For the same compound, the fitness (S. aureus Newman [1]; first compound 0.075 µg/mL, partner 0.0156 µg/mL) was 0.635, the fitness (S. aureus Newman [1]; first compound 0.075 µg/mL, partner 0.0312 µg/mL) was 0.618 and the fitness (S. aureus Newman [1]; first compound 0.075 µg/mL, partner 0.0625 µg/mL) was 0.494. It also gave a fitness (S. aureus Newman [1]; first compound 0.15 µg/mL, partner 0.0156 µg/mL) of 0.0645, a fitness (S. aureus Newman [1]; first compound 0.15 µg/mL, partner 0.0312 µg/mL) of 0.0732 and a fitness (S. aureus Newman [1]; first compound 0.15 µg/mL, partner 0.0625 µg/mL) of 0.0443. The fitness (B. subtilis 168 [2]; first compound 0.0098 µg/mL, partner 0.002 µg/mL) was 0.894, the fitness (B. subtilis 168 [2]; first compound 0.0098 µg/mL, partner 0.004 µg/mL) was 0.866 and the fitness (B. subtilis 168 [2]; first compound 0.0098 µg/mL, partner 0.0078 µg/mL, one replicate) was 0.976. It also gave a fitness (B. subtilis 168 [2]; first compound 0.0098 µg/mL, partner 0.008 µg/mL) of 0.863, a fitness (B. subtilis 168 [2]; first compound 0.0098 µg/mL, partner 0.0155 µg/mL, one replicate) of 0.905 and a fitness (B. subtilis 168 [2]; first compound 0.0098 µg/mL, partner 0.031 µg/mL, one replicate) of 0.965. For the same compound, the fitness (B. subtilis 168 [2]; first compound 0.0098 µg/mL, partner 0.075 µg/mL, one replicate) was 0.375, the fitness (B. subtilis 168 [2]; first compound 0.0195 µg/mL, partner 0.002 µg/mL) was 0.748 and the fitness (B. subtilis 168 [2]; first compound 0.0195 µg/mL, partner 0.004 µg/mL) was 0.693. The fitness (B. subtilis 168 [2]; first compound 0.0195 µg/mL, partner 0.0078 µg/mL, one replicate) was 0.814, the fitness (B. subtilis 168 [2]; first compound 0.0195 µg/mL, partner 0.008 µg/mL) was 0.61 and the fitness (B. subtilis 168 [2]; first compound 0.0195 µg/mL, partner 0.0155 µg/mL, one replicate) was 0.779. The fitness (B. subtilis 168 [2]; first compound 0.0195 µg/mL, partner 0.031 µg/mL, one replicate) was 0.729, the fitness (B. subtilis 168 [2]; first compound 0.0195 µg/mL, partner 0.075 µg/mL, one replicate) was 0.0252 and the fitness (B. subtilis 168 [2]; first compound 0.0195 µg/mL, partner 0.15 µg/mL, one replicate) was 0.0469. For the same compound, the fitness (B. subtilis 168 [2]; first compound 0.0195 µg/mL, partner 0.3 µg/mL, one replicate) was 0.0517, the fitness (B. subtilis 168 [2]; first compound 0.039 µg/mL, partner 0.002 µg/mL) was 0.0478 and the fitness (B. subtilis 168 [2]; first compound 0.039 µg/mL, partner 0.004 µg/mL) was 0.0457. For the same compound, the fitness (B. subtilis 168 [2]; first compound 0.039 µg/mL, partner 0.0078 µg/mL, one replicate) was 0.136, the fitness (B. subtilis 168 [2]; first compound 0.039 µg/mL, partner 0.008 µg/mL) was 0.054 and the fitness (B. subtilis 168 [2]; first compound 0.039 µg/mL, partner 0.0155 µg/mL, one replicate) was 0.191. The fitness (B. subtilis 168 [2]; first compound 0.039 µg/mL, partner 0.031 µg/mL, one replicate) was 0.0978, the fitness (B. subtilis 168 [2]; first compound 0.039 µg/mL, partner 0.075 µg/mL, one replicate) was 0.0437 and the fitness (B. subtilis 168 [2]; first compound 0.039 µg/mL, partner 0.15 µg/mL, one replicate) was 0.0478. For the same compound, the fitness (B. subtilis 168 [2]; first compound 0.039 µg/mL, partner 0.3 µg/mL, one replicate) was 0.0488, the fitness (S. pneumoniae D39V; first compound 0.125 µg/mL, partner 0.005 µg/mL) was 0.987 and the fitness (S. pneumoniae D39V; first compound 0.125 µg/mL, partner 0.01 µg/mL) was 0.969. The fitness (S. pneumoniae D39V; first compound 0.125 µg/mL, partner 0.02 µg/mL) was 0.915, the fitness (S. pneumoniae D39V; first compound 0.125 µg/mL, partner 0.04 µg/mL) was 0.535 and the fitness (S. pneumoniae D39V; first compound 0.25 µg/mL, partner 0.005 µg/mL, one replicate) was 0.989. For the same compound, the fitness (S. pneumoniae D39V; first compound 0.25 µg/mL, partner 0.01 µg/mL) was 0.934, the fitness (S. pneumoniae D39V; first compound 0.25 µg/mL, partner 0.02 µg/mL) was 0.844 and the fitness (S. pneumoniae D39V; first compound 0.25 µg/mL, partner 0.04 µg/mL) was 0.424. The fitness (S. pneumoniae D39V; first compound 0.5 µg/mL, partner 0.005 µg/mL) was 0.815, the fitness (S. pneumoniae D39V; first compound 0.5 µg/mL, partner 0.04 µg/mL) was 0.354 and the Bliss interaction score (S. aureus Newman [3]) was 0.0816. For the same compound, the Bliss interaction score (S. aureus DSM 20231) was 0.0341 and the Bliss interaction score (B. subtilis 168 [4]) was -0.0871.

For `CN(C)[C@@H]1C(O)=C(C(N)=O)C(=O)[C@@]2(O)C(O)=C3C(=O)c4c(O)ccc(Cl)c4[C@@](C)(O)[C@H]3C[C@@H]12` [Clortetracycline] + COc1ccc(CCN(C)CCCC(C#N)(c2ccc(OC)c(OC)c2)C(C)C)cc1OC [Verapamil], the Bliss interaction score (S. aureus DSM 20231) was 0.243.

Work on `CC(=O)Oc1cccc2c1C(=O)c1c(OC(C)=O)cc(C(=O)O)cc1C2=O` [Diacerein] + CC(=O)NC[C@H]1CN(c2ccc(N3CCOCC3)c(F)c2)C(=O)O1 [Linezolid] yielded a Bliss interaction score (S. aureus DSM 20231) of -0.29.

With `COc1cccc2c1C(=O)c1c(O)c3c(c(O)c1C2=O)C[C@@](O)(C(=O)CO)C[C@@H]3O[C@H]1C[C@H](N)[C@H](O)[C@H](C)O1` [Doxorubicin] + CCCSc1nc(N[C@@H]2C[C@H]2c2ccc(F)c(F)c2)c2nnn([C@@H]3C[C@H](OCCO)[C@@H](O)[C@H]3O)c2n1 [Ticagrelor] the Bliss interaction score (S. aureus DSM 20231) was -0.298.

Compound `COCCOC(=O)C1=C(C)NC(C)=C(C(=O)OC/C=C/c2ccccc2)C1c1cccc([N+](=O)[O-])c1` (configuration not stated) [Cilnidipine] + CCC(C)C1C(=O)NC(=C)C(=O)NC(C(=O)NC(CSCC(C(=O)N1)NC(=O)/C(=C/C)/NC(=O)C(C(C)CC)N)C(=O)NC2C(SCC(NC(=O)CNC(=O)C3CCCN3C2=O)C(=O)NC(CCCCN)C(=O)NC4C(SCC(NC(=O)CNC(=O)C(NC(=O)C(NC(=O)C(NC(=O)CNC4=O)C)CC(C)C)CCSC)C(=O)NC(CC(=O)N)C(=O)NC(CCSC)C(=O)NC(CCCCN)C(=O)NC5C(SCC6C(=O)NC(C(=O)NC(CSC(C(C(=O)N6)NC(=O)C(NC5=O)C)C)C(=O)NC(CO)C(=O)NC(C(C)CC)C(=O)NC(CC7=CN=CN7)C(=O)NC(C(C)C)C(=O)NC(=C)C(=O)NC(CCCCN)C(=O)O)CC8=CN=CN8)C)C)C)CC(C)C [Nisin] has a Bliss interaction score (S. aureus DSM 20231; main component drawn) of 0.156.

`Cn1c(=O)c2c(ncn2C)n(C)c1=O` [Caffeine] + O=C(N[C@H](CO)[C@H](O)c1ccc([N+](=O)[O-])cc1)C(Cl)Cl [Chloramphenicol] was tested, and the Bliss interaction score (S. aureus DSM 20231) was -0.3.

Compound `O=C(O)c1cn(C2CC2)c2cc(N3CCNCC3)c(F)cc2c1=O` [Ciprofloxacin] + CCCSc1nc(N[C@@H]2C[C@H]2c2ccc(F)c(F)c2)c2nnn([C@@H]3C[C@H](OCCO)[C@@H](O)[C@H]3O)c2n1 [Ticagrelor] has a Bliss interaction score (S. aureus DSM 20231) of -0.375.

Work on `COCCOC(=O)C1=C(C)NC(C)=C(C(=O)OC/C=C/c2ccccc2)C1c1cccc([N+](=O)[O-])c1` (configuration not stated) [Cilnidipine] + Clc1ccc(COC(Cn2ccnc2)c2ccc(Cl)cc2Cl)c(Cl)c1 [Miconazole] yielded a Bliss interaction score (S. aureus DSM 20231) of 0.105.

For `COCCOC(=O)C1=C(C)NC(C)=C(C(=O)OC/C=C/c2ccccc2)C1c1cccc([N+](=O)[O-])c1` (configuration not stated) [Cilnidipine] + CC[C@H]1OC(=O)[C@H](C)[C@@H](O[C@H]2C[C@@](C)(OC)[C@@H](O)[C@H](C)O2)[C@H](C)[C@@H](O[C@@H]2O[C@H](C)C[C@H](N(C)C)[C@H]2O)[C@](C)(OC)C[C@@H](C)C(=O)[C@H](C)[C@@H](O)[C@]1(C)O [Clarithromycin], the Bliss interaction score (S. aureus DSM 20231) was -0.196.

For `CO/N=C(\C(=O)N[C@@H]1C(=O)N2C(C(=O)O)=C(COC(C)=O)CS[C@H]12)c1csc(N)n1` [Cefotaxime] + Nc1ccc(O)c(C(=O)O)c1 [Mesalamine], the Bliss interaction score (S. aureus DSM 20231) was 0.16.

For `COCCOC(=O)C1=C(C)NC(C)=C(C(=O)OC/C=C/c2ccccc2)C1c1cccc([N+](=O)[O-])c1` (configuration not stated) [Cilnidipine] + CC1(C)S[C@@H]2[C@H](NC(=O)Cc3ccccc3)C(=O)N2[C@H]1C(=O)O [PenicillinG], the Bliss interaction score (S. aureus DSM 20231) was -0.229.

With `CC(=O)Oc1ccccc1C(=O)O` [Acetylsalicylicacid] + CN(Cc1cnc2nc(N)nc(N)c2n1)c1ccc(C(=O)N[C@@H](CCC(=O)O)C(=O)O)cc1 [Methotrexate] the Bliss interaction score (S. aureus DSM 20231) was -0.416.

With `COCCOC(=O)C1=C(C)NC(C)=C(C(=O)OC/C=C/c2ccccc2)C1c1cccc([N+](=O)[O-])c1` (configuration not stated) [Cilnidipine] + CN(C)[C@@H]1C(O)=C(C(N)=O)C(=O)[C@@]2(O)C(O)=C3C(=O)c4c(O)ccc(Cl)c4[C@@](C)(O)[C@H]3C[C@@H]12 [Clortetracycline] the Bliss interaction score (S. aureus DSM 20231) was -0.323.

Work on `CC(C)c1c(C(=O)Nc2ccccc2)c(-c2ccccc2)c(-c2ccc(F)cc2)n1CC[C@@H](O)C[C@@H](O)CC(=O)O` [Atorvastatin] + CO[C@@]12[C@H](COC(N)=O)C3=C(C(=O)C(C)=C(N)C3=O)N1C[C@@H]1N[C@@H]12 [MitomycinC] yielded a Bliss interaction score (S. aureus DSM 20231) of 0.187.

With `C[C@H]1c2cccc(O)c2C(=O)C2=C(O)[C@]3(O)C(=O)C(C(N)=O)=C(O)[C@@H](N(C)C)[C@@H]3[C@@H](O)[C@@H]21` [Doxycycline] + CC(=O)S[C@@H]1CC2=CC(=O)CC[C@]2(C)[C@H]2CC[C@@]3(C)[C@@H](CC[C@@]34CCC(=O)O4)[C@H]12 [Spironolactone] the Bliss interaction score (S. aureus DSM 20231) was 0.239.

`COCCOC(=O)C1=C(C)NC(C)=C(C(=O)OC/C=C/c2ccccc2)C1c1cccc([N+](=O)[O-])c1` (configuration not stated) [Cilnidipine] + Cn1nnc(-c2ccc(-c3ccc(N4C[C@H](CO)OC4=O)cc3F)cn2)n1 [Tedizolid] showed a Bliss interaction score (S. aureus DSM 20231) of -0.429.

From the supplement of paper PMC10627819
